These results are taken from US10882838B2, “Cannabinergic compounds and uses thereof” (Northeastern University, priority 2012, dated 2021).

Structures are written as SMILES. Where two headings read alike, the source gives them in different places.

Test [1] addresses mCB2 receptor (Mus musculus (Mouse), UniProt P47936). Put plainly: mCB2 competition-equilibrium binding with [3H]CP-55,940, membranes of HEK293 cells expressing mCB2. The protocol:
(§1) HEK293 cells expressing hCB1 or hCB2 or mCB2 receptor are used for membrane preparations according to Abadji et al. The resulting pellet is resuspended in 10 mM Tris-chloride, pH 7.4, with 5 mM MgCl2 and 2 mM EDTA (TME), rapidly frozen in liquid nitrogen and stored at −80° C. for no longer than two months. Protein content is assayed by using the Bio-Rad protein assay according to the manufacturer's protocol.
(§2) All the cannabinoids discussed in this invention are tested for their ability to bind to CB1 and CB2 receptors using membranes from rat brain or HEK293 cells expressing either mCB2 or hCB2, respectively via competition-equilibrium binding using [^3H]CP-55,940. Results are analyzed using nonlinear regression to determine ligand IC50 (Prism by GraphPad Software, Inc.), and Ki values are calculated from the IC50. IC50 and Ki values are determined from at least three independent experiments.

Test [2] concerns the target CB1 receptor (Rattus norvegicus (Rat), UniProt P20272). Kind of test: rCB1 competition-equilibrium binding with [3H]CP-55,940, rat brain membranes. The protocol:
Frozen rat brains (CB1 source) are obtained from Pel-Freeze Biologicals (Rogers, Ak.) and stored at −80° C. until use. Membranes are prepared according to the method described by Dodd et al. and used in our laboratory as reported.
as §2

The target of test [3] is hCB2 receptor (Homo sapiens (Human), UniProt P34972). Put plainly: hCB2 competition-equilibrium binding with [3H]CP-55,940, membranes of HEK293 cells expressing hCB2. The procedure:
as §1, §2

The mark [4] stands for this setting: HEK293 cells expressing mCB2, [3H]CP-55,940, read-out: mCB2 Ki.
Setting [5] is: rat brain membranes, [3H]CP-55,940, read-out: rCB1 Ki.
Setting [6] is: HEK293 cells expressing hCB2, [3H]CP-55,940, read-out: hCB2 Ki.

The Ki is the dissociation constant of the complex between target and ligand, obtained from inhibition or displacement. As to `CC1=CC[C@H]2[C@@H](C1)c1c(O)cc(C(C)(C)C(=O)O)cc1OC2(C)C` [Compound 1.1, 2-((6aS,10aR)-6a,7,10,10a-tetrahydro-1-hydroxy-6,6,9-trimethyl-6H-benzo[c]chromen-3-yl)-2-methylpropanoic Acid], the Ki in test [1], in test [2] and in test [3] was above 10000 nM throughout.

Regarding `CCCCOC(=O)C(C)(C)c1cc(O)c2c(c1)OC(C)(C)[C@H]1CC=C(C)C[C@@H]21` [Compound 1.4, Butyl-2-((6aS, 10aR)-6a, 7, 10, 10a-tetrahydro-1-hydroxy-6,6,9-trimethyl-6H-benzo[c]chromen-3-yl)-2-methylpropanoate], the Ki in test [1] (setting [4]) came to 0.6 nM; in test [2] (setting [5]), 0.6 nM; in test [3] (setting [6]), 0.7 nM.

On to `CC1=CC[C@H]2[C@@H](C1)c1c(O)cc(C(C)(C)C(=O)OCCCCCBr)cc1OC2(C)C` [Compound 1.5, 5-bromopentyl-2-((6aS,10aR)-6a,7,10,10a-tetrahydro-1-hydroxy-6,6,9-trimethyl-6H-benzo[c]chromen-3-yl)-2-methylpropanoate], for which the Ki in test [1] (setting [4]) stood at 0.5 nM; in test [2] (setting [5]), 1.2 nM; in test [3] (setting [6]), 0.6 nM.

Turning to `CC1=CC[C@@H]2[C@@H](C1)c1c(O)cc(C(C)(C)C(=O)OCCCBr)cc1OC2(C)C` [Compound 1.7, 3-bromopropyl-2-((6aR, 10aR)-6a, 7, 10, 10a-tetrahydro-1-hydroxy-6,6,9-trimethyl-6H-benzo[c]chromen-3-yl)-2-methylpropanoate], the figures for the Ki in test [1] (setting [4]), in test [2] (setting [5]) and in test [3] (setting [6]) were 1.1 nM, 0.8 nM and 0.6 nM, respectively.

With `CCCSC(=O)C(C)(C)c1cc(O)c2c(c1)OC(C)(C)[C@@H]1CC=C(C)C[C@@H]21` [Compound 1.30, S-propyl-2-((6aR,10aR)-6a,7,10,10a-tetrahydro-1-hydroxy-6,6,9-trimethyl-6H-benzo[c]chromen-3-yl)-2-methylpropanethioate], the Ki in test [2] (setting [5]) worked out at 0.5 nM; in test [3] (setting [6]), 0.7 nM.

In the case of `CC1=CC[C@@H]2[C@@H](C1)c1c(O)cc(C(C)(C)CO)cc1OC2(C)C` [Compound 1.32, (6aR,10 aR)-3-(1-hydroxy-2-methylpropan-2-yl)-6,6,9-trimethyl-6a,7,10,10a-tetrahydro-6H-benzo[c]chromen-1-ol], in test [2] (setting [5]), the Ki amounted to 447 nM.

Consider `CCCCC(=O)OCC(C)(C)c1cc(O)c2c(c1)OC(C)(C)[C@@H]1CC=C(C)C[C@@H]21` [Compound 1.33, 2-((6aR, 10aR)-6a,7,10,10a-tetrahydro-1-hydroxy-6,6,9-trimethyl-6H-benzo[c]chromen-3-yl)-2-methyl propylpentanoate], for which the inhibitory constant (Ki) is 0.5 nM in test [2] (setting [5]) and 1 nM in test [3] (setting [6]).

For `CCCCCCC(C)(C)c1cc(O)c2c(c1)OC(C)(C)[C@@H]1CCOC(=O)C[C@@H]21` [Compound 3.11, (5 aR,11bR)-11-hydroxy-6,6-dimethyl-9-(2-methyloctan-2-yl)-4,5,5a,6-tetrahydro-1H-oxepino[4,5-c]chromen-2(11bH)-one], the Ki came out at 802 nM in test [1] (setting [4]) and 99 nM in test [2] (setting [5]).

Consider `CCOC(=O)C(C)(C)c1cc(O)c(-c2cccc(C#N)c2)c(O)c1` [Compound 4.2, Ethyl 2-(3′-cyano-2,6-dihydroxybiphenyl-4-yl)-2-methylpropanoate], for which the figures for the Ki in test [2] (setting [5]) and in test [3] (setting [6]) were 3660 nM and 94.8 nM, respectively.

As to `CCOC(=O)C(C)(C)c1cc(O)c(-c2cc(Cl)cc(Cl)c2)c(OC)c1` [Compound 4.7, ethyl 2-(3′,5′-dichloro-2-hydroxy-6-methoxybiphenyl-4-yl)-2-methylpropanoate], the Ki in test [2] (setting [5]) was determined as 1000 nM; in test [3] (setting [6]), 700 nM.

As to `CCOC(=O)C(C)(C)c1cc(O)c(-c2cc(Cl)cc(Cl)c2)c(O)c1` [Compound 4.8, Ethyl 2-(3′,5′-dichloro-2,6-dihydroxybiphenyl-4-yl)-2-methylpropanoate], the Ki in test [3] (setting [6]) turned out to be 20.9 nM.
